Source: PubChem BioAssay AID504522 (The Scripps Research Institute Molecular Screening Center, 2011)
Calls of active or inactive are those of the source. No rule for the calls is given here.

Tests used:
Experiment in all cases: SILAC ABPP selectivity across cellular hydrolases – LC-MS, mouse cells, selectivity assay for LYPLA1 inhibitor project, late-stage follow-up (AID 504522)
[1] = system: FASN; details: serine hydrolase panel, stronger effect = lower value
[2] = system: BAT5; details: serine hydrolase panel, stronger effect = lower value
[3] = system: DPP4; details: serine hydrolase panel, stronger effect = lower value
[4] = system: APEH; details: serine hydrolase panel, stronger effect = lower value
[5] = system: LYPLA2; details: serine hydrolase panel, stronger effect = lower value
[6] = system: IAH1; details: serine hydrolase panel, stronger effect = lower value
[7] = system: ABHD10; details: serine hydrolase panel, stronger effect = lower value
[8] = system: PNPLA8; details: serine hydrolase panel, stronger effect = lower value
[9] = system: PAFAH1B2; details: serine hydrolase panel, stronger effect = lower value
[10] = system: ACOT7; details: serine hydrolase panel, stronger effect = lower value
[11] = target: Prolyl endopeptidase (Mus musculus) (UniProt Q9QUR6); details: serine hydrolase panel, PREP, stronger effect = lower value
[12] = system: AADACL1; details: serine hydrolase panel, stronger effect = lower value
[13] = system: FAAH; details: serine hydrolase panel, stronger effect = lower value
[14] = system: PREPL; details: serine hydrolase panel, stronger effect = lower value
[15] = target: Platelet-activating factor acetylhydrolase 2, cytoplasmic (Mus musculus) (UniProt Q8VDG7); details: serine hydrolase panel, PAFAH2, stronger effect = lower value
[16] = system: DPP7; details: serine hydrolase panel, stronger effect = lower value
[17] = system: PNPLA6; details: serine hydrolase panel, stronger effect = lower value
[18] = system: CTSA; details: serine hydrolase panel, stronger effect = lower value
[19] = system: DDHD1; details: serine hydrolase panel, stronger effect = lower value
[20] = system: ACOT1; details: serine hydrolase panel, stronger effect = lower value
[21] = system: DPP9; details: serine hydrolase panel, stronger effect = lower value
[22] = system: SERHL; details: serine hydrolase panel, stronger effect = lower value
[23] = system: PRCP; details: serine hydrolase panel, stronger effect = lower value
[24] = system: PAFAH1B3; details: serine hydrolase panel, stronger effect = lower value
[25] = system: LACTB; details: serine hydrolase panel, stronger effect = lower value
[26] = system: ABHD11; details: serine hydrolase panel, stronger effect = lower value
[27] = system: ABHD6; details: serine hydrolase panel, stronger effect = lower value
[28] = system: DPP8; details: serine hydrolase panel, stronger effect = lower value
[29] = system: ACOT2; details: serine hydrolase panel, stronger effect = lower value
[30] = system: LIPA; details: serine hydrolase panel, stronger effect = lower value
[31] = system: LYPLA3; details: serine hydrolase panel, stronger effect = lower value
[32] = system: PARL; details: serine hydrolase panel, stronger effect = lower value
[33] = system: PPME1; details: serine hydrolase panel, stronger effect = lower value
[34] = system: SIAE; details: serine hydrolase panel, stronger effect = lower value
[35] = system: ABHD12; details: serine hydrolase panel, stronger effect = lower value
[36] = system: FAM108B1; details: serine hydrolase panel, stronger effect = lower value
[37] = system: ESD; details: serine hydrolase panel, stronger effect = lower value
[38] = system: LYPLA1; details: serine hydrolase panel, stronger effect = lower value
[39] = system: PLA2G6; details: serine hydrolase panel, stronger effect = lower value

Platelet-activating factor acetylhydrolase 2, cytoplasmic (Mus musculus), sequence (Q8VDG7 whole entry, looked up): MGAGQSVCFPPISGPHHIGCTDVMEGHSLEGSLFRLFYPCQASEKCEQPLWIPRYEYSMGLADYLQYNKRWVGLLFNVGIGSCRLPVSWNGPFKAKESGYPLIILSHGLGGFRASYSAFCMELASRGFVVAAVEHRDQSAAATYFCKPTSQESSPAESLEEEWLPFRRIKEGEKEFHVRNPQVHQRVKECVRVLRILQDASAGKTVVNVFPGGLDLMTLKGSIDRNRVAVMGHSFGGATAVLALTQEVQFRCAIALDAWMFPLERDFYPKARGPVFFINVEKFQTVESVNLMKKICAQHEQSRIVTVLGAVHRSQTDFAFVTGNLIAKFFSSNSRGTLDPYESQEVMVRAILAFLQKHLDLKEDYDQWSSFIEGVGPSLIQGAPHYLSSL
Prolyl endopeptidase (Mus musculus), sequence (Q9QUR6 whole entry, looked up): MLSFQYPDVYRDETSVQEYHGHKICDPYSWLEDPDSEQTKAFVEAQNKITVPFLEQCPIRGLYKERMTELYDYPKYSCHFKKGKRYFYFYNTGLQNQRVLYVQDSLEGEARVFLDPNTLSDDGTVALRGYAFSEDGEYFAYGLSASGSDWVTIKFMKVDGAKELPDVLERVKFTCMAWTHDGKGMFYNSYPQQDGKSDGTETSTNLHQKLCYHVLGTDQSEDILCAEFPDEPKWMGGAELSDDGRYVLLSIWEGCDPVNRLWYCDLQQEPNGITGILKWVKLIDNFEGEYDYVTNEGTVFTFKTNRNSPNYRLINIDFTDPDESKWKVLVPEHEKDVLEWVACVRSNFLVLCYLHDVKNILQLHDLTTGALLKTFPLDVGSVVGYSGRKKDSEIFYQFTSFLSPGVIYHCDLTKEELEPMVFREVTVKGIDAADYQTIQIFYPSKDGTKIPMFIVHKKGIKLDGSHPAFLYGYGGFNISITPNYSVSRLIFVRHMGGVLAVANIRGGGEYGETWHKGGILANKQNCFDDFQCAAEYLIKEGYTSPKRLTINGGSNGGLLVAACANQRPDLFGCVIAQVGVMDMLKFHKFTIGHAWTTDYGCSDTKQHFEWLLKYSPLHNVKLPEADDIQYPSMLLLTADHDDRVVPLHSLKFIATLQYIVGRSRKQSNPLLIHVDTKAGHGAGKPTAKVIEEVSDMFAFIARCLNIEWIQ

COCC1CCCCN1C(=O)n1ncc(C(O)(c2ccccc2)c2ccccc2)n1 (centres undefined)
SILAC ratio (probe-treated/control) [1]: 1.5 (inactive)
SILAC ratio (probe-treated/control) [2]: 1.5 (inactive)
SILAC ratio (probe-treated/control) [3]: 1 (inactive)
SILAC ratio (probe-treated/control) [4]: 1.4 (inactive)
SILAC ratio (probe-treated/control) [5]: 1.5 (inactive)
SILAC ratio (probe-treated/control) [6]: 1.4 (inactive)
SILAC ratio (probe-treated/control) [7]: 1.3 (inactive)
SILAC ratio (probe-treated/control) [8]: 1.3 (inactive)
SILAC ratio (probe-treated/control) [9]: 1.6 (inactive)
SILAC ratio (probe-treated/control) [10]: 1.5 (inactive)
SILAC ratio (probe-treated/control) [11]: 1.4 (inactive)
SILAC ratio (probe-treated/control) [12]: 1.3 (inactive)
SILAC ratio (probe-treated/control) [13]: 1.5 (inactive)
SILAC ratio (probe-treated/control) [14]: 1.2 (inactive)
SILAC ratio (probe-treated/control) [15]: 1.3 (inactive)
SILAC ratio (probe-treated/control) [16]: 1.3 (inactive)
SILAC ratio (probe-treated/control) [17]: 1.4 (inactive)
SILAC ratio (probe-treated/control) [18]: 1.3 (inactive)
SILAC ratio (probe-treated/control) [19]: 2 (inactive)
SILAC ratio (probe-treated/control) [20]: 1 (inactive)
SILAC ratio (probe-treated/control) [21]: 1.5 (inactive)
SILAC ratio (probe-treated/control) [22]: 1.5 (inactive)
SILAC ratio (probe-treated/control) [23]: 1.5 (inactive)
SILAC ratio (probe-treated/control) [24]: 1.3 (inactive)
SILAC ratio (probe-treated/control) [25]: 1.5 (inactive)
SILAC ratio (probe-treated/control) [26]: 0.02
SILAC ratio (probe-treated/control) [27]: 0.9 (inactive)
SILAC ratio (probe-treated/control) [28]: 1.5 (inactive)
SILAC ratio (probe-treated/control) [29]: 1.1 (inactive)
SILAC ratio (probe-treated/control) [30]: 1.4 (inactive)
SILAC ratio (probe-treated/control) [31]: 1.5 (inactive)
SILAC ratio (probe-treated/control) [32]: 1.5 (inactive)
SILAC ratio (probe-treated/control) [33]: 1.5 (inactive)
SILAC ratio (probe-treated/control) [34]: 1.5 (inactive)
SILAC ratio (probe-treated/control) [35]: 1.3 (inactive)
SILAC ratio (probe-treated/control) [36]: 1.3 (inactive)
SILAC ratio (probe-treated/control) [37]: 1.4 (inactive)
SILAC ratio (probe-treated/control) [38]: 1.5 (inactive)
SILAC ratio (probe-treated/control) [39]: 1.4 (inactive)
